Where two headings read alike, the source gives them in different places. Marks after values point to notes of the source that are not given here.
Key:
[1] = target: T1, turkey β3C-adrenoceptor (tβ3C) (Meleagris gallopavo, UniProt A0A803YLI8); test: 3H-CGP12177 whole cell binding, CHO tβ3C cells
[2] = target: T2, turkey β4C-adrenoceptor (tβ4C) (Meleagris gallopavo, UniProt P43141); test: cell-based; assay type: binding
T2 construct: expressed in transfected cells

[3] = target: Human β1-adrenoceptor; parameters: method as in PMID 15655528, PMID 20590599; details: Human β1, given for comparison; ref 25 and 30; cited from earlier work
[4] = target: Human β2-adrenoceptor; parameters: method as in PMID 15655528, PMID 20590599; details: Human β2, given for comparison; ref 25 and 30; cited from earlier work
[5] = target: Human β3-adrenoceptor; details: cited from earlier work
[6] = target: T1, turkey β3C-adrenoceptor (tβ3C); test: CRE-SPAP production, CHO tβ3C cells; assay type: cell-based
[7] = target: T2, turkey β4C-adrenoceptor (tβ4C); test: cell-based; assay type: cell-based; details: CHO tβ4C cells; for % isop max: CRE-SPAP, % of 10 µM isoprenaline maximum
[8] = competition with 3H-CGP12177, whole cells, CHO tβ3C, given as log KD, mean ± s.e.m.
[9] = competition with 3H-CGP12177, whole cells, CHO tβ4C, given as log KD, mean ± s.e.m.
[10] = competition with 3H-CGP12177, whole cells, CHO tβ4C, given as log KD, mean ± s.e.m., read-out: Log KD (converted)
[11] = Human β3, given for comparison, ref 25 and 30
[12] = competition with 3H-CGP12177, whole cells, CHO tβ3C, given as log KD, mean ± s.e.m., read-out: Log KD (converted)

T2 sequence (P43141 whole entry): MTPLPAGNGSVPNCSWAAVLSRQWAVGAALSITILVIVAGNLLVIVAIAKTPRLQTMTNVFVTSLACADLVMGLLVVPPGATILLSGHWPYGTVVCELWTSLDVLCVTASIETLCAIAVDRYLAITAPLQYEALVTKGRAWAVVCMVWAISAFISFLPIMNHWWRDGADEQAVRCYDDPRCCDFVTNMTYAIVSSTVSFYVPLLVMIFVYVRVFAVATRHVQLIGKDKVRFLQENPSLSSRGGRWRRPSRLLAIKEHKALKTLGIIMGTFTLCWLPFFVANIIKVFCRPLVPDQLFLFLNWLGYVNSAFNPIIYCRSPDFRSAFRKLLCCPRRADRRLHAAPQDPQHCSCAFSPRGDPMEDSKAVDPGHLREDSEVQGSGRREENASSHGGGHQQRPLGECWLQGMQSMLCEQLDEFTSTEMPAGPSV
T1 sequence (A0A803YLI8 entry or part of it): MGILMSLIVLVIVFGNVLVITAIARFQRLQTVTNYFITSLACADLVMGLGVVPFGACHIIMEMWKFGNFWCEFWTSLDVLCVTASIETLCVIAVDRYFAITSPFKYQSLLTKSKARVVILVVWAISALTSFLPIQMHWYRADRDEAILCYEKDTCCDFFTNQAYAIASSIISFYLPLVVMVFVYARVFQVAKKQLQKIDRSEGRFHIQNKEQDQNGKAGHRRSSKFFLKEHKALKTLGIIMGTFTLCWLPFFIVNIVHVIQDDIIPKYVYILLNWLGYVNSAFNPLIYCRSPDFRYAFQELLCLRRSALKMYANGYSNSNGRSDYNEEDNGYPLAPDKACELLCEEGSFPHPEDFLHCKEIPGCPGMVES

Row | SMILES | Log KD [1, 8] | Log KD [2, 9] | Log KD [3] | Log KD [4] | Kd [1] | Kd [2, 10] | Log KD [5, 11] | Kd [1, 12] | further results
1 | CCCCCCNC(=O)Nc1ccc(S(=O)(=O)Nc2ccc(CCNC[C@H](O)COc3ccc(O)cc3)cc2)cc1 [L755507] | −6.56±0.06 | −7.63±0.11 | −6.23 | −6.83 | – | – | – | – | Log KD ([5]; Human β3, binding to site 1): −8.60 ^*
2 | CC(C)(Cc1ccccc1)NCC(O)c1ccc(O)c(NS(C)(=O)=O)c1 (stereo not drawn) [zinterol] | – | – | −5.96 | −8.04 | 24 nM | 158 nM | −6.27 | – | –
3 | CC(C)NCC(O)c1cc(O)cc(O)c1 (stereo not drawn) [Metaproterenol] | – | – | −4.71 | −5.30 | – | 7410 nM | −4.06 | 4170 nM | –
4 | C[C@H](Cc1ccc(OCC(=O)O)cc1)NC[C@H](O)c1cccc(Cl)c1 [BRL37344] | −6.28±0.06 | −5.89±0.10 | −5.19 | −6.51 | – | – | −6.45 | – | Log EC50 ([6]; CRE-SPAP production, CHO tβ3C cells): −7.67±0.04; % isop max ([6]; CRE-SPAP, % of 10 µM isoprenaline maximum, CHO tβ3C cells): 88.5±4.2%; Log EC50 ([7]; CRE-SPAP production): −7.15±0.07; % isop max [7]: 97.1±3.0%
5 | O=C(O)Cc1ccc(OCCNC[C@H](O)c2ccccc2)cc1 [ZD2079] | – | – | −4.21 | >−4 | – | > 100000 nM | −4.59 | > 100000 nM | –
6 | CNC[C@H](O)c1ccc(O)c(O)c1 [Adrenaline] | – | – | −5.15 | −6.13 | 1550 nM | 1700 nM | −4.70 | – | EC50 [6]: 63.1 nM; Emax ([6]; read-out: % isop max): 106 ± 2.7%; EC50 ([7]; CRE-SPAP production, read-out: Log EC50 (converted)): 191 nM; % isop max [7]: 99.6±2.7%
7 | CC(C)(C)NCC(O)COc1cccc2c1CC(O)C(O)C2 (stereo not drawn) [Nadolol] | – | – | −7.23 | −8.60 | – | 18.2 nM | −6.18 | 11.2 nM | –
8 | CC(C)(Cc1c[nH]c2ccccc12)NCC(O)COc1ccccc1C#N (stereo not drawn) [Bucindolol] | – | – | −9.31 | −9.99 | 0.191 nM | 0.389 nM | −8.04 | – | –
9 | C[C@H](Cc1ccc2c(c1)OC(C(=O)[O-])(C(=O)[O-])O2)NC[C@H](O)c1cccc(Cl)c1.[Na+].[Na+] [CL316243] | >−4 | >−4 | >−3 | – | – | – | −5.11 | – | –
10 | CC(C)NCC(O)c1ccc2ccccc2c1 (stereo not drawn) [Pronethalol] | – | – | −6.44 | – | – | – | −5.89 | 102 nM | Kd [2]: 87.1 nM
11 | COc1ccc(OC)c(C(O)C(C)NC(C)(C)C)c1 (stereo not drawn) [Butoxamine] | – | – | −4.85 | −6.23 | 1020 nM | 12600 nM | >−4 | – | –
12 | Br.COC(=O)COc1ccc(CC(C)NC[C@H](O)c2cccc(Cl)c2)cc1 (stereo partly drawn) [BRL35135A] | −7.42±0.06 | −6.39±0.03 | −6.08 | −7.38 | – | – | −6.73 | – | –

From paper PMC2994877, “A Full Pharmacological Analysis of the Three Turkey β-Adrenoceptors and Comparison with the Human β-Adrenoceptors” (PLoS ONE, 2010)
